# US12281363B2, “Methods for detecting antiviral-drug resistant virus” (Secretary of State for Health and Social Care, priority 2018, dated 2025)
# pIC50: −log10 of the molar value. Where two headings read alike, the source gives them in different places.
# System: HSV-1
# Experiment: Plaque reduction assay, HSV-1 clinical isolates on Vero cells
# Assay type: cell-based
# Conditions: Human alphaherpesvirus 1, Vero
# Excerpt: Viral isolates were used to infect a sub-confluent monolayer of Vero cells at a concentration of 75 or 50 plaque forming units (PFU) per well for HSV-1 and HSV-2, respectively. […] CMC medium typically used to create a semisolid interface and prevents indiscrimate viral spreading. Other materials (e.g. agar) may also be used to create this interface.
# Cells were fixed with 10% formalin and stained with crystal violet before enumeration of the plaques (microscopic observation or use of fluorescent antibodies for detection is also suitable). The data obtained from these experiments were then expressed as percent inhibition of viral infectivity relative to the no drug control.
# Definitions of phenotypic drug susceptibility classification as sensitive or resistant were as follows: ACV, <3 μM or >40 μM; PCV, <10 μM or >40 μM; CDV, <24 μM or >30 μM; FOS, <250 μM or >400 μM; and ACV, <6.5 μM or >40 μM; PCV, <38 μM or >40 μM; FOS, <250 μM or >400 μM for HSV-1 and HSV-2, respectively. Any IC50 values falling in between these sensitive and resistant cut-offs were reported as intermediate resistance.
# The phenotype (i.e. reactivity to a drug) of the virus was characterised by the plaque reduction assay as described above.
compound,measurement,setting,value
"O=C(O)P(=O)(O)O [Foscarnet, foscarnet]",pIC50,"isolate HPG033, HSV-1 TK I358L (1072A>C), also TK T287M, read-out: Drug susceptibility (IC50 value)",4.05
same,pIC50,"isolate HPG033, HSV-1 TK I358L (1072A>C), also TK T287M, read-out: Drug susceptibility Foscarnet (FOS)",> 3.60
same,pIC50,"isolate HPG033, HSV-1 pol N1046T (3137A>C), also TK T287M, pol A1169T, read-out: Drug susceptibility (IC50 value)",4.05
same,pIC50,"isolate HPG033, HSV-1 pol N1046T (3137A>C), also TK T287M, pol A1169T, read-out: Drug susceptibility Foscarnet (FOS)",> 3.60
same,pIC50,"isolate HPG035, HSV-1 pol S239L (716C>T), also pol S724N, read-out: Drug susceptibility (IC50 value)",3.15
same,pIC50,"isolate HPG035, HSV-1 pol S239L (716C>T), also pol S724N, read-out: Drug susceptibility Foscarnet (FOS)",< 3.40
same,pIC50,"isolate HPG037, HSV-1 TK L69M (205>A), also TK Y239H, read-out: Drug susceptibility Foscarnet (FOS)",> 3.60
same,pIC50,"isolate HPG037, HSV-1 TK R256W (766C>T), read-out: Drug susceptibility (IC50 value)",4.10
same,pIC50,"isolate HPG037, HSV-1 TK R256W (766C>T), read-out: Drug susceptibility Foscarnet (FOS)",> 3.60
same,pIC50,"isolate HPG037, HSV-1 TK Y239H (715T>C), read-out: Drug susceptibility (IC50 value)",4.10
same,pIC50,"isolate HPG037, HSV-1 TK Y239H (715T>C), read-out: Drug susceptibility Foscarnet (FOS)",> 3.60
same,pIC50,"isolate HPG039, HSV-1 TK 85* or H58fs (169delC, 170delC, 171delC, or 172delC), read-out: Drug susceptibility (IC50 value)",4.22
same,pIC50,"isolate HPG039, HSV-1 TK 85* or H58fs (169delC, 170delC, 171delC, or 172delC), read-out: Drug susceptibility Foscarnet (FOS)",> 3.60
same,pIC50,"isolate HPG040, HSV-1 pol S911N (2732G>A), also TK deletion (C) nt 896-900, pol A1169T, read-out: Drug susceptibility (IC50 value)",3.86
same,pIC50,"isolate HPG040, HSV-1 pol S911N (2732G>A), also TK deletion (C) nt 896-900, pol A1169T, read-out: Drug susceptibility Foscarnet (FOS)",> 3.60
same,pIC50,"isolate HPG041, HSV-1 pol S911N (2732G>A), also pol A1169T, read-out: Drug susceptibility (IC50 value)",4.05
same,pIC50,"isolate HPG041, HSV-1 pol S911N (2732G>A), also pol A1169T, read-out: Drug susceptibility Foscarnet (FOS)",> 3.60
same,pIC50,"isolate HPG042, HSV-1 pol A972V (2915C>T), also TK deletion (C) nt 881-885, pol A1169T, read-out: Drug susceptibility (IC50 value)",4.22
same,pIC50,"isolate HPG042, HSV-1 pol A972V (2915C>T), also TK deletion (C) nt 881-885, pol A1169T, read-out: Drug susceptibility Foscarnet (FOS)",> 3.60
same,pIC50,"isolate HPG042, HSV-1 pol G22R (64G>A), also TK deletion (C) nt 881-885, pol A1169T, read-out: Drug susceptibility (IC50 value)",4.22
same,pIC50,"isolate HPG042, HSV-1 pol G22R (64G>A), also TK deletion (C) nt 881-885, pol A1169T, read-out: Drug susceptibility Foscarnet (FOS)",> 3.60
same,pIC50,"isolate HPG043, HSV-1 TK 183* (437_438insA), read-out: Drug susceptibility (IC50 value)",4.16
same,pIC50,"isolate HPG043, HSV-1 TK 183* (437_438insA), read-out: Drug susceptibility Foscarnet (FOS)",> 3.60
same,pIC50,"isolate HPG045, HSV-1 TK L49R (146T>G), read-out: Drug susceptibility (IC50 value)",4.12
same,pIC50,"isolate HPG045, HSV-1 TK L49R (146T>G), read-out: Drug susceptibility Foscarnet (FOS)",> 3.60
same,pIC50,"isolate HPG045, HSV-1 pol L419I (1255C>A), also TK L49R, pol A1169T, read-out: Drug susceptibility (IC50 value)",4.12
same,pIC50,"isolate HPG045, HSV-1 pol L419I (1255C>A), also TK L49R, pol A1169T, read-out: Drug susceptibility Foscarnet (FOS)",> 3.60
same,pIC50,"isolate HPG046, HSV-1 TK I166N (497T>A), read-out: Drug susceptibility (IC50 value)",> 4.30
same,pIC50,"isolate HPG046, HSV-1 TK I166N (497T>A), read-out: Drug susceptibility Foscarnet (FOS)",> 3.60
same,pIC50,"isolate HPG047, HSV-1 pol E680 (2039A>C), also TK deletion (C) nt 548-553, pol A1169T, read-out: Drug susceptibility Foscarnet (FOS)",> 3.60
same,pIC50,"isolate HPG050, HSV-1 TK Q34* (100C>T), read-out: Drug susceptibility (IC50 value)",3.77
same,pIC50,"isolate HPG050, HSV-1 TK Q34* (100C>T), read-out: Drug susceptibility Foscarnet (FOS)",> 3.60
same,pIC50,"isolate HPG051, HSV-1 pol D83A (248A>C), also TK R176stop, read-out: Drug susceptibility (IC50 value)",4.08
same,pIC50,"isolate HPG051, HSV-1 pol D83A (248A>C), also TK R176stop, read-out: Drug susceptibility Foscarnet (FOS)",> 3.60
same,pIC50,"isolate HPG052, HSV-1 TK Q34* (100C>T), read-out: Drug susceptibility (IC50 value)",4.11
same,pIC50,"isolate HPG052, HSV-1 TK Q34* (100C>T), read-out: Drug susceptibility Foscarnet (FOS)",> 3.60
same,pIC50,"isolate HPG053, HSV-1 pol L802R + A834S (2405T>G, 2500G>T), also TK R176W, read-out: Drug susceptibility Foscarnet (FOS)",< 3.40
same,pIC50,"isolate HPG053, HSV-1 pol S911N (2732G>A), also TK R176W, pol A1169T, read-out: Drug susceptibility (IC50 value)",3.20
same,pIC50,"isolate HPG053, HSV-1 pol S911N (2732G>A), also TK R176W, pol A1169T, read-out: Drug susceptibility Foscarnet (FOS)",< 3.40
same,pIC50,"isolate HPG054, HSV-1 pol E992K (2974G>A), also TK insert (G) nt 430-436, pol A1169T, read-out: Drug susceptibility (IC50 value)",4.28
same,pIC50,"isolate HPG054, HSV-1 pol E992K (2974G>A), also TK insert (G) nt 430-436, pol A1169T, read-out: Drug susceptibility Foscarnet (FOS)",> 3.60
same,pIC50,"isolate HPG055, HSV-1 TK V204G (611T>G), also pol A1169AT, read-out: Drug susceptibility (IC50 value)",> 4.30
same,pIC50,"isolate HPG055, HSV-1 TK V204G (611T>G), also pol A1169AT, read-out: Drug susceptibility Foscarnet (FOS)",> 3.60
same,pIC50,"read-out: Drug susceptibility (IC50 value), isolate HPG005, HSV-1 TK A192T (574G>A)",> 4.30
same,pIC50,"read-out: Drug susceptibility (IC50 value), isolate HPG006, HSV-1 pol G121S (361G>A), also a TK resistance mutation (footnote a)",3.94
same,pIC50,"read-out: Drug susceptibility (IC50 value), isolate HPG012, HSV-1 pol G985E (2954G>A), also TK A93V",4.04
same,pIC50,"read-out: Drug susceptibility (IC50 value), isolate HPG016, HSV-1 pol A1169T (3505G>A)",3.81
same,pIC50,"read-out: Drug susceptibility (IC50 value), isolate HPG037, HSV-1 TK L69M (205>A), also TK Y239H",4.10
same,pIC50,"read-out: Drug susceptibility (IC50 value), isolate HPG042, HSV-1 TK frameshift (881delC to 885delC)",4.22
same,pIC50,"read-out: Drug susceptibility (IC50 value), isolate HPG047, HSV-1 pol E680 (2039A>C), also TK deletion (C) nt 548-553, pol A1169T",4.03
same,pIC50,"read-out: Drug susceptibility Foscarnet (FOS), isolate HPG005, HSV-1 TK A192T (574G>A)",> 3.60
same,pIC50,"read-out: Drug susceptibility Foscarnet (FOS), isolate HPG006, HSV-1 pol G121S (361G>A), also a TK resistance mutation (footnote a)",> 3.60
same,pIC50,"read-out: Drug susceptibility Foscarnet (FOS), isolate HPG012, HSV-1 pol G985E (2954G>A), also TK A93V",> 3.60
same,pIC50,"read-out: Drug susceptibility Foscarnet (FOS), isolate HPG016, HSV-1 pol A1169T (3505G>A)",> 3.60
same,pIC50,"read-out: Drug susceptibility Foscarnet (FOS), isolate HPG042, HSV-1 TK frameshift (881delC to 885delC)",> 3.60
